The values below come from patent US20060019977A1, “Spiroheterocyclic derivative compounds and drugs comprising the compound as the active ingredient” (ONO PHARMACEUTICAL CO., LTD., priority 2002, published 2006).

The structures appear in SMILES notation. Structures can show the parent of a compound that is named as a salt.

The assay deals with T1, human CCR5 (Homo sapiens, UniProt P51681).
T1 construct: expressed in transfected cells
In words: Inhibition test on the binding of RANTES to CCR5 (RANTES-induced transient increase of Ca ion in CCR5/CHO cells). Type of assay: cell-based. Particulars: human CCR5 stably over-expressing CHO cells; 10 nM recombinant human RANTES; Ca2+ transient increase (Fura-2AM). As for the experimental part: Specifically, e.g., since CCR5 is a G protein-coupled seven transmembrane type receptor, an assay system in which the effect of RANTES on the transient increase of Ca ion induced via CCR5 is measured can be carried out as an assay system for screening a compound capable of inhibiting binding of RANTES to CCR5. Since both of the T cell tropic (X4) HIV and SDF-1 bind to CXCR4, similar idea can be considered.
(1) Isolation of Human CCR5 Gene
Human placental cDNA was prepared using Marathon cDNA amplification kit (Clontech). PCR primers hCCR5XbaI-F1: • 5′-[…]-3′ (SEQ ID NO:1) and hCCR5XbaI-R1: • 5′-[…]-3′ (SEQ ID NO:2) were designed based on the sequence of GenBank U54994. […]
The thus established human CCR5 stably over-expressing CHO cell (CCR5/CHO cell) was suspended in Ham's F-12 medium containing FBS (10%) and dispensed in […] portions into a 96 well plate. […] Transient increase in the intracellular Ca^2+ concentration induced by the human RANTES was measured using a Ca^2+ detector for 96 well use (Hamamatsu Photonics), and inhibition ratio (%) of the test compound was calculated by the following calculation formula. Inhibition ratio=(Ec−Ea)/Ec×100 • Ec: measured value of Ca^2+ transient increase by RANTES • Ea: measured value of Ca^2+ transient increase by RANTES when a test compound was added

As usually defined, the IC50 is the concentration that inhibits the measured activity by half.

T1 sequence (P51681 whole entry): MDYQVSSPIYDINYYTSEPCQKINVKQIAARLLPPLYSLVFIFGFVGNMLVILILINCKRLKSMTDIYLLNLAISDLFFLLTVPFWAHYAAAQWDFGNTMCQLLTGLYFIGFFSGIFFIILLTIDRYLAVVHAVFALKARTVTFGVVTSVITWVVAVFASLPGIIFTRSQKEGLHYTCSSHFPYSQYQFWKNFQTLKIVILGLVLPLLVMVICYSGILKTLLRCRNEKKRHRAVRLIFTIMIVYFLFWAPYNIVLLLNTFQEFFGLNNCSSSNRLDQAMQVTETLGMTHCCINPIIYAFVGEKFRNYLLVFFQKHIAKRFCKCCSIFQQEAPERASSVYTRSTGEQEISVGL

For the compound `CCCCN1C(=O)[C@@H]2CSCN2C(=O)C12CCN(Cc1ccc(Oc3ccccc3)cc1)CC2` [Example 1(1), (3R)-1-butyl-2,5-dioxo-3,4-(2-thiapropano)-9-[(4-phenoxyphenyl)methyl]-1,4,9-triazaspiro[5.5]undecane hydrochloride], the IC50 came to 740 nM.

Take `CCCCN1C(=O)C2(CCCC2)NC(=O)C12CCN(Cc1ccc(Oc3ccc(C(=O)NC)cc3)cc1)CC2` [Example 5, 1-butyl-2,5-dioxo-3,3-butano-9-[4-(4methylcarbamoylphenoxy)benzyl]-1,4,9-triazaspiro[5.5]undecane hydrochloride]: the IC50 was determined as 12 nM.
